Source: PubChem BioAssay (NCI)
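GI50 marks 50% less growth. The concentration for full growth arrest is given as TGI.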

Legend:
Test in all cases: inhibition of tumour cell growth, NCI panel, 384-well format
MDA-MB-231 breast = tested on: MDA-MB-231 breast
MDA-MB-435 melanoma = tested on: MDA-MB-435 melanoma
T-47D breast = tested on: T-47D breast
UO-31 renal = tested on: UO-31 renal
OVCAR-3 ovarian = tested on: OVCAR-3 ovarian
RPMI-8226 leukemia = tested on: RPMI-8226 leukemia
ACHN renal = tested on: ACHN renal
UACC-62 melanoma = tested on: UACC-62 melanoma
HCT-116 colon = tested on: HCT-116 colon
SK-MEL-28 melanoma = tested on: SK-MEL-28 melanoma
SF-268 CNS = tested on: SF-268 CNS
OVCAR-8 ovarian = tested on: OVCAR-8 ovarian
MCF7 breast = tested on: MCF7 breast
SK-MEL-2 melanoma = tested on: SK-MEL-2 melanoma
NCI/ADR-RES ovarian = tested on: NCI/ADR-RES ovarian
HOP-92 NSCLC = tested on: HOP-92 NSCLC
K-562 leukemia = tested on: K-562 leukemia
HS 578T breast = tested on: HS 578T breast
BT-549 breast = tested on: BT-549 breast
SK-OV-3 ovarian = tested on: SK-OV-3 ovarian
M14 melanoma = tested on: M14 melanoma
HCT-15 colon = tested on: HCT-15 colon
A549 NSCLC = tested on: A549 NSCLC
EKVX NSCLC = tested on: EKVX NSCLC
NCI-H522 lung = tested on: NCI-H522 lung
U251 glioblastoma = tested on: U251 glioblastoma
786-0 renal = tested on: 786-0 renal
SF-295 CNS = tested on: SF-295 CNS
UACC-257 melanoma = tested on: UACC-257 melanoma
MDA-MB-468 breast = tested on: MDA-MB-468 breast
CCRF-CEM leukemia = tested on: CCRF-CEM leukemia
LOX IMVI melanoma = tested on: LOX IMVI melanoma
NCI-H226 lung = tested on: NCI-H226 lung
NCI-H460 NSCLC = tested on: NCI-H460 NSCLC
IGROV1 ovarian = tested on: IGROV1 ovarian
TK-10 renal = tested on: TK-10 renal
HT29 colon = tested on: HT29 colon
MALME-3M melanoma = tested on: MALME-3M melanoma
SN12C renal = tested on: SN12C renal
HL-60(TB) leukemia = tested on: HL-60(TB) leukemia
OVCAR-5 ovarian = tested on: OVCAR-5 ovarian
PC-3 prostate = tested on: PC-3 prostate
HCC-2998 colon = tested on: HCC-2998 colon
KM12 colon = tested on: KM12 colon
MOLT-4 leukemia = tested on: MOLT-4 leukemia
COLO 205 colon = tested on: COLO 205 colon
SF-539 CNS = tested on: SF-539 CNS

Question: Which GI50 (MDA-MB-231 breast) does the source give for `CC(F)(F)c1cc(F)ccc1-c1sc2cc(O)ccc2c1Oc1ccc(/C=C/C(=O)O)cc1` here?
Answer: The GI50 was 15.7 µM.

Question: And the TGI (MDA-MB-231 breast)?
Answer: The TGI was 29.5 µM.

Question: And the GI50 (MDA-MB-435 melanoma)?
Answer: Its GI50 is 3.24 µM.

Question: What about the TGI (MDA-MB-435 melanoma) of the same compound?
Answer: The TGI was 12.8 µM.

Question: And the GI50 (T-47D breast)?
Answer: The GI50 was 11.2 µM.

Question: What about the TGI (T-47D breast) of the same compound?
Answer: Its TGI is 25.9 µM.

Question: What about the GI50 (UO-31 renal) of the same compound?
Answer: The GI50 was 12.4 µM.

Question: What about the TGI (UO-31 renal) of the same compound?
Answer: Its TGI is 26.3 µM.

Question: And the GI50 (OVCAR-3 ovarian)?
Answer: The GI50 was 12.6 µM.

Question: And the TGI (OVCAR-3 ovarian)?
Answer: Its TGI is 25.8 µM.

Question: What about the GI50 (RPMI-8226 leukemia) of the same compound?
Answer: The GI50 was 11 µM.

Question: And the TGI (RPMI-8226 leukemia)?
Answer: Its TGI is 23.2 µM.

Question: What about the GI50 (ACHN renal) of the same compound?
Answer: The GI50 was 17 µM.

Question: What about the TGI (ACHN renal) of the same compound?
Answer: The TGI was 37.8 µM.

Question: What about the GI50 (UACC-62 melanoma) of the same compound?
Answer: The GI50 was 9.94 µM.

Question: And the TGI (UACC-62 melanoma)?
Answer: The TGI was 21.6 µM.

Question: And the GI50 (HCT-116 colon)?
Answer: The GI50 was 15.6 µM.

Question: What about the TGI (HCT-116 colon) of the same compound?
Answer: Its TGI is 30.5 µM.

Question: And the GI50 (SK-MEL-28 melanoma)?
Answer: Its GI50 is 11.5 µM.

Question: And the TGI (SK-MEL-28 melanoma)?
Answer: The TGI was 32.9 µM.

Question: What about the GI50 (SF-268 CNS) of the same compound?
Answer: The GI50 was 16.7 µM.

Question: What about the TGI (SF-268 CNS) of the same compound?
Answer: The TGI was 37.2 µM.

Question: And the GI50 (OVCAR-8 ovarian)?
Answer: Its GI50 is 25.4 µM.

Question: And the TGI (OVCAR-8 ovarian)?
Answer: The TGI was > 100 µM.

Question: And the TGI (MCF7 breast)?
Answer: The TGI was 14 µM.

Question: What about the GI50 (SK-MEL-2 melanoma) of the same compound?
Answer: Its GI50 is 13.6 µM.

Question: And the TGI (SK-MEL-2 melanoma)?
Answer: The TGI was 28.9 µM.

Question: What about the GI50 (NCI/ADR-RES ovarian) of the same compound?
Answer: The GI50 was 16.5 µM.

Question: What about the TGI (NCI/ADR-RES ovarian) of the same compound?
Answer: The TGI was > 100 µM.

Question: What about the GI50 (HOP-92 NSCLC) of the same compound?
Answer: The GI50 was 16.1 µM.

Question: And the TGI (HOP-92 NSCLC)?
Answer: The TGI was 35.3 µM.

Question: And the GI50 (K-562 leukemia)?
Answer: The GI50 was 10.9 µM.

Question: And the TGI (K-562 leukemia)?
Answer: Its TGI is 24.4 µM.

Question: What about the GI50 (HS 578T breast) of the same compound?
Answer: Its GI50 is 10.2 µM.

Question: And the TGI (HS 578T breast)?
Answer: The TGI was 22 µM.

Question: What about the GI50 (BT-549 breast) of the same compound?
Answer: The GI50 was 12.8 µM.

Question: And the TGI (BT-549 breast)?
Answer: Its TGI is 26.7 µM.

Question: And the GI50 (SK-OV-3 ovarian)?
Answer: The GI50 was 20.2 µM.

Question: What about the TGI (SK-OV-3 ovarian) of the same compound?
Answer: Its TGI is 43.5 µM.

Question: And the GI50 (M14 melanoma)?
Answer: Its GI50 is 11.6 µM.

Question: What about the TGI (M14 melanoma) of the same compound?
Answer: The TGI was 25.8 µM.

Question: What about the GI50 (HCT-15 colon) of the same compound?
Answer: The GI50 was 11.3 µM.

Question: And the TGI (HCT-15 colon)?
Answer: Its TGI is 24 µM.

Question: What about the GI50 (A549 NSCLC) of the same compound?
Answer: Its GI50 is 13.8 µM.

Question: And the TGI (A549 NSCLC)?
Answer: Its TGI is 31.2 µM.

Question: And the GI50 (EKVX NSCLC)?
Answer: Its GI50 is 16.9 µM.

Question: And the TGI (EKVX NSCLC)?
Answer: The TGI was 37.9 µM.

Question: What about the GI50 (NCI-H522 lung) of the same compound?
Answer: Its GI50 is 8.38 µM.

Question: What about the TGI (NCI-H522 lung) of the same compound?
Answer: Its TGI is 21.3 µM.

Question: What about the GI50 (U251 glioblastoma) of the same compound?
Answer: Its GI50 is 12.6 µM.

Question: What about the TGI (U251 glioblastoma) of the same compound?
Answer: Its TGI is 25.3 µM.

Question: And the GI50 ([…]-0 renal)?
Answer: Its GI50 is 14.6 µM.

Question: What about the TGI (786-0 renal) of the same compound?
Answer: Its TGI is 33.4 µM.

Question: What about the GI50 (SF-295 CNS) of the same compound?
Answer: Its GI50 is 7.72 µM.

Question: What about the TGI (SF-295 CNS) of the same compound?
Answer: The TGI was 21.6 µM.

Question: What about the GI50 (UACC-257 melanoma) of the same compound?
Answer: The GI50 was 17 µM.

Question: And the TGI (UACC-257 melanoma)?
Answer: The TGI was 36.4 µM.

Question: And the GI50 (MDA-MB-468 breast)?
Answer: Its GI50 is 11.7 µM.

Question: What about the TGI (MDA-MB-468 breast) of the same compound?
Answer: Its TGI is 26.6 µM.

Question: What about the GI50 (CCRF-CEM leukemia) of the same compound?
Answer: Its GI50 is 12.6 µM.

Question: What about the TGI (CCRF-CEM leukemia) of the same compound?
Answer: Its TGI is 25.2 µM.

Question: And the GI50 (LOX IMVI melanoma)?
Answer: Its GI50 is 13.5 µM.

Question: What about the TGI (LOX IMVI melanoma) of the same compound?
Answer: Its TGI is 26.7 µM.

Question: What about the GI50 (NCI-H226 lung) of the same compound?
Answer: Its GI50 is 20 µM.

Question: And the TGI (NCI-H226 lung)?
Answer: The TGI was 40.3 µM.

Question: What about the GI50 (NCI-H460 NSCLC) of the same compound?
Answer: Its GI50 is 17.6 µM.

Question: What about the TGI (NCI-H460 NSCLC) of the same compound?
Answer: The TGI was 31.8 µM.

Question: What about the GI50 (IGROV1 ovarian) of the same compound?
Answer: The GI50 was 18.1 µM.

Question: What about the TGI (IGROV1 ovarian) of the same compound?
Answer: Its TGI is 39.3 µM.

Question: And the GI50 (TK-10 renal)?
Answer: Its GI50 is 22.9 µM.

Question: What about the TGI (TK-10 renal) of the same compound?
Answer: The TGI was 61.6 µM.

Question: And the GI50 (HT29 colon)?
Answer: Its GI50 is 16.2 µM.

Question: And the TGI (HT29 colon)?
Answer: The TGI was 31.4 µM.

Question: What about the GI50 (MALME-3M melanoma) of the same compound?
Answer: Its GI50 is 13.5 µM.

Question: And the TGI (MALME-3M melanoma)?
Answer: The TGI was 27.8 µM.

Question: And the GI50 (SN12C renal)?
Answer: The GI50 was 20.1 µM.

Question: What about the TGI (SN12C renal) of the same compound?
Answer: The TGI was 40.5 µM.

Question: What about the GI50 (HL-60(TB) leukemia) of the same compound?
Answer: Its GI50 is 14.6 µM.

Question: What about the TGI (HL-60(TB) leukemia) of the same compound?
Answer: The TGI was 27.8 µM.

Question: And the GI50 (OVCAR-5 ovarian)?
Answer: Its GI50 is 18.2 µM.

Question: What about the TGI (OVCAR-5 ovarian) of the same compound?
Answer: Its TGI is 33.6 µM.

Question: What about the GI50 (PC-3 prostate) of the same compound?
Answer: Its GI50 is 13.9 µM.

Question: What about the TGI (PC-3 prostate) of the same compound?
Answer: Its TGI is 28.1 µM.

Question: What about the GI50 (HCC-2998 colon) of the same compound?
Answer: Its GI50 is 18.2 µM.

Question: What about the TGI (HCC-2998 colon) of the same compound?
Answer: The TGI was 32.3 µM.

Question: What about the GI50 (KM12 colon) of the same compound?
Answer: Its GI50 is 12.7 µM.

Question: And the TGI (KM12 colon)?
Answer: Its TGI is 25.5 µM.

Question: What about the GI50 (MOLT-4 leukemia) of the same compound?
Answer: The GI50 was 13.3 µM.

Question: What about the TGI (MOLT-4 leukemia) of the same compound?
Answer: Its TGI is 26.1 µM.

Question: And the GI50 (COLO 205 colon)?
Answer: Its GI50 is 16.5 µM.

Question: What about the TGI (COLO 205 colon) of the same compound?
Answer: The TGI was 31.7 µM.

Question: What about the GI50 (SF-539 CNS) of the same compound?
Answer: Its GI50 is 15.8 µM.

Question: And the TGI (SF-539 CNS)?
Answer: Its TGI is 29.8 µM.
